We go through 7 compounds from patent US20230212163A1, “2-(HET)ARYL-SUBSTITUTED CONDENSED HETEROCYCLIC DERIVATIVES AS PEST CONTROL AGENTS” (Bayer Aktiengesellschaft, priority 2020, published 2023).

What all share (type): in vivo
Experiment [1] has as its system Spodoptera frugiperda. The experiment can be described thus: Spodoptera frugiperda spray test (maize leaf discs). Particulars: Spodoptera frugiperda, foliar, 168 h, application rate 100 g/ha, after 7 days. How it is done: (§1) [table] To produce a suitable active compound formulation, 1 part by weight of active compound is dissolved using the stated parts by weight of solvent and made up with water containing an emulsifier concentration of 1000 ppm until the desired concentration is attained. To produce further test concentrations, the formulation is diluted with emulsifier-containing water. Leaf discs of maize (Zea mays) are sprayed with an active compound formulation of the desired concentration and, after drying, populated with caterpillars of the fall armyworm (Spodoptera frugiperda). After 7 days, the efficacy in % is determined. 100% means that all the caterpillars have been killed; 0% means that no caterpillar has been killed.

The test system of experiment [2] is Spodoptera frugiperda. Description: Spodoptera frugiperda spray test (SPODFR, cotton leaves), comparative. Particulars: 168 h, 7 dat, read-out: % efficacy. Here is the method: (§2) [table] To produce a suitable active compound formulation, 1 part by weight of active compound is dissolved using the stated parts by weight of solvent and made up with water containing an emulsifier concentration of 1000 ppm until the desired concentration is attained. To produce further test concentrations, the formulation is diluted with emulsifier-containing water. If the addition of ammonium salts or/and penetrants is required, these are each added in a concentration of 1000 ppm to the formulation solution. Cotton leaves (Gossypium hirsutum) are sprayed with an active compound formulation of the desired concentration and populated with caterpillars of the armyworm (Spodoptera frugiperda). After the desired time, the kill in % is determined. 100% means that all caterpillars have been killed; 0% means that none of the caterpillars have been killed.

For experiment [3], the system named is Plutella xylostella. Description: Plutella xylostella spray test (PLUTMA), comparative. As to conditions: 168 h, 7 dat, read-out: % efficacy. How it is done: as §2, with “solution. Cabbage” for “solution. Cotton”, “leaves (Brassica oleracea)” for “leaves (Gossypium hirsutum)”, “and infected” for “and populated”, “with larvae” for “with caterpillars”, “the diamondback moth (Plutella xylostella).” for “the armyworm (Spodoptera frugiperda).”

Experiment [4] has as its system Phaedon cochleariae. The experiment can be described thus: Phaedon cochleariae spray test. Particulars: application rate 100 g/ha, after 7 days. How it is done: as §1, with “water. Discs” for “water. Leaf discs”, “of Chinese cabbage leaves (Brassica pekinensis)” for “of maize (Zea mays)”, “with larvae” for “with caterpillars”, “the mustard beetle (Phaedon cochleariae).” for “the fall armyworm (Spodoptera frugiperda).”, “the beetle larvae” for “the caterpillars”, “no beetle larvae have” for “no caterpillar has”

For experiment [5], the system named is Myzus persicae. Description: Myzus persicae oral test. As to conditions: 120 h, application rate 4 ppm, after 5 days, read-out: efficacy. How it is done: [table] To produce a suitable active compound formulation, 1 part by weight of active compound is dissolved using the specified parts by weight of solvent and made up with water until the desired concentration is attained. 50 μl of the active compound formulation are transferred into microtitre plates and made up to a final volume of 200 μl with 150 μl of IPL41 insect medium (33%+15% sugar). Subsequently, the plates are sealed with parafilm, which a mixed population of green peach aphids (Myzus persicae) within a second microtitre plate is able to puncture and imbibe the solution through. After 5 days, the efficacy in % is determined. 100% means that all the aphids have been killed; 0% means that no aphids have been killed.

Experiment [6] has as its system Heliothis armigera. Description: Heliothis armigera spray test (HELIAR), comparative. As to conditions: Helicoverpa armigera, 168 h, 7 dat, read-out: % efficacy. How it is done: as §2, with “Cotton plants” for “Cotton leaves”, “concentration and, after drying,” for “concentration and”, “the cotton bollworm (Heliothis armigera).” for “the armyworm (Spodoptera frugiperda).”

The test system of experiment [7] is Myzus persicae. Description: Myzus persicae spray test. Particulars: application rate 100 g/ha, after 5 days. Here is the method:
as §1, with “Discs” for “Leaf discs”, “Chinese cabbage leaves (Brassica pekinensis) infested by all stages of the green peach aphid (Myzus persicae)” for “maize (Zea mays)”, “concentration.” for “concentration and, after drying, populated with caterpillars of the fall armyworm (Spodoptera frugiperda).”, “5” for “7”, “aphids” for “caterpillars”, “aphids have” for “caterpillar has”

The subject of experiment [8] is Meloidogyne incognita. The experiment can be described thus: Meloidogyne incognita test. Particulars: application rate 20 ppm, after 14 days. Here is the method: [table] To produce an appropriate active ingredient formulation, 1 part by weight of active ingredient is mixed with the stated amount of solvent and the concentrate is diluted to the desired concentration with water. Vessels are filled with sand, active ingredient solution, an egg/larvae suspension of the southern root-knot nematode (Meloidogyne incognita) and lettuce seeds. The lettuce seeds germinate and the plants develop. The galls develop on the roots. After 14 days, the nematicidal efficacy in % is determined by the formation of galls. 100% means that no galls were found; 0% means that the number of galls on the treated plants corresponds to the untreated control.

The test system of experiment [9] is Diabrotica balteata. Description: Diabrotica balteata spray test. As to conditions: Diabrotica balteata, 168 h, application rate 100 g/ha, after 7 days. How it is done: [table] To produce a suitable active compound formulation, 1 part by weight of active compound is dissolved using the stated parts by weight of solvent and made up with water containing an emulsifier concentration of 1000 ppm until the desired concentration is attained. To produce further test concentrations, the formulation is diluted with emulsifier-containing water. Pre-swollen wheat grains (Triticum aestivum) are incubated in a multiwell plate filled with agar and a little water for one day (5 seed grains per cavity). The germinated wheat grains are sprayed with an active compound formulation of the desired concentration. Subsequently, each cavity is infected with 10-20 beetle larvae of Diabrotica balteata. After 7 days, the efficacy in % is determined. 100% means that all wheat plants have grown as in the untreated, uninfected control; 0% means that no wheat plant has grown.

Experiment [10] concerns Nezara viridula. The experiment can be described thus: Nezara viridula spray test. As to conditions: Nezara viridula, 96 h, application rate 500 g/ha, after 4 days. Here is the method:
[table] To produce a suitable active compound formulation, 1 part by weight of active compound is dissolved using the stated parts by weight of solvent and made up with water containing an emulsifier concentration of 1000 ppm until the desired concentration is attained. To produce further test concentrations, the formulation is diluted with emulsifier-containing water. Barley plants (Hordeum vulgare) are sprayed with an active compound formulation of the desired concentration and are infected with larvae of the Southern green shield bug (Nezara viridula). After 4 days, the efficacy in % is determined. 100% means that all of the shield bugs have been killed; 0% means that none of the shield bugs have been killed.

With `CCS(=O)(=O)c1ccc(-n2ncn(-c3ccc(Cl)cc3)c2=O)nc1-c1nc2cc(S(=O)(=O)C(F)(F)F)ccc2o1` [Example I-02], in experiment [1], the pest or weed control at 100 g/ha was 100%. Besides, the Emax at 0.8 ppm in experiment [2], in experiment [3] and in experiment [6] was 100% throughout. In experiment [4], this compound gave an activity of 100%. Moreover, the pest or weed control at 4 ppm in experiment [5] came out at 90%. For the same compound, the Emax at 4 ppm in experiment [6] is 100%.

Take `CCS(=O)(=O)c1ccc(-n2ncn(C3CC3)c2=O)nc1-c1nc2cc(S(=O)(=O)C(F)(F)F)ccc2o1` [Example I-03]: the pest or weed control at 100 g/ha in experiment [1] is 100%. In addition, the activity in experiment [7] and in experiment [4] was 100% each time. In [5], the pest or weed control at 4 ppm amounted to 100%.

Take `CCS(=O)(=O)c1ccc(-n2ncn(-c3ccc(F)cc3)c2=O)nc1-c1nc2cc(S(=O)(=O)C(F)(F)F)ccc2o1` [Example I-04]: the pest or weed control at 100 g/ha in experiment [1] is 100%. Besides, the Emax at 0.8 ppm in experiment [2] worked out at 100%. The Emax at 4 ppm in experiment [3] and in experiment [6] was 100% throughout. In experiment [4], this compound registered an activity of 100%. In addition, the pest or weed control at 4 ppm in [5] is 100%.

In the case of `CCS(=O)(=O)c1ccc(-n2ncn(-c3ccc(C4(C#N)CC4)cc3)c2=O)nc1-c1nc2cc(S(=O)(=O)C(F)(F)Cl)ccc2o1` [Example I-18], the “nematicidal efficacy (formation of galls)” value in [8] turned out to be 100%. The same compound gave a pest or weed control at 100 g/ha in [9] of 100%.

For `CCS(=O)(=O)c1ccc(-n2ncn(-c3ccc(OC)nc3)c2=O)nc1-c1nc2cc(S(=O)(=O)C(F)(F)F)ccc2o1` [Example I-43], the pest or weed control at 100 g/ha was 83% in experiment [1] and 80% in experiment [9]. This compound showed a pest or weed control at 500 g/ha in experiment [10] of 90%. Further, the “nematicidal efficacy (formation of galls)” value in [8] came to 90%.

As for `CCc1nc(C(F)(F)F)cc2nc(-c3nc(-n4ncn(-c5ccc(O)cc5)c4=O)ccc3S(=O)(=O)CC)n(C)c12` [I-016 Known from WO2018/141954, reference compound], the Emax at 0.8 ppm in [2] is 65%; in [3] it was 70%; in [6], 10%. Besides, in experiment [6], the Emax at 4 ppm came to 55%.

As to `CCS(=O)(=O)c1ccc(-n2cnn(-c3ccccc3F)c2=O)nc1-c1nc2cc(C(F)(F)F)ccc2n1C` [I-34 Known from WO2017/055185, reference compound], the Emax at 0.8 ppm in experiment [2] turned out to be 0%. Also, the Emax at 4 ppm in experiment [3] and in experiment [6] was 0% in each case.
